The source made the active and inactive calls. The rule behind the calls is not given here.
Tests used:
Assay type in all cases: cell-based
[1] = molecular target: T1, Casein kinase 2 (Mus musculus) (UniProt Q60737+P67871+O54833+Q8CH19); test: Inhibition of CK2 in mouse C2C12 cells assessed as reduction in Akt phosphorylation at S129 residues at 1 to 4 uM by Western blot analysis; details: dose 1-4 µM
[2] = molecular target: La-related protein 1 (Mus musculus) (UniProt Q6ZQ58); test: Inhibition of Larp1 in mouse C2C12 cells assessed as reduction in phospho-sites occupancy at 4 uM after 5 hrs by SILAC based LC-MS/MS analysis relative to control
[3] = molecular target: WASH complex subunit 2 (Mus musculus) (UniProt Q6PGL7); test: Inhibition of Washc2 in mouse C2C12 cells assessed as reduction in phospho-sites occupancy at 4 uM after 5 hrs by SILAC based LC-MS/MS analysis relative to control
[4] = molecular target: Serine/arginine repetitive matrix protein 1 (Mus musculus) (UniProt Q52KI8); test: Inhibition of Srrm1 in mouse C2C12 cells assessed as reduction in phospho-sites occupancy at 4 uM after 5 hrs by SILAC based LC-MS/MS analysis relative to control
[5] = molecular target: Pleckstrin homology-like domain family B member 1 (Mus musculus) (UniProt Q6PDH0); test: Inhibition of Phldb1 in mouse C2C12 cells assessed as reduction in phospho-sites occupancy at 4 uM after 5 hrs by SILAC based LC-MS/MS analysis relative to control
[6] = molecular target: tRNA (guanine(26)-N(2))-dimethyltransferase (Mus musculus) (UniProt Q3TX08); test: Inhibition of Trmt1 in mouse C2C12 cells assessed as reduction in phospho-sites occupancy at 4 uM after 5 hrs by SILAC based LC-MS/MS analysis relative to control
[7] = molecular target: Nucleolar RNA helicase 2 (Mus musculus) (UniProt Q9JIK5); test: Inhibition of Ddx21 in mouse C2C12 cells assessed as reduction in phospho-sites occupancy at 4 uM after 5 hrs by SILAC based LC-MS/MS analysis relative to control
[8] = molecular target: Rho GTPase-activating protein 35 (Mus musculus) (UniProt Q91YM2); test: Inhibition of Arhgap35 in mouse C2C12 cells assessed as reduction in phospho-sites occupancy at 4 uM after 5 hrs by SILAC based LC-MS/MS analysis relative to control
[9] = molecular target: T1, Casein kinase 2 (Mus musculus); test: Inhibition of CK2 in mouse C2C12 cells assessed as reduction in CDC37 phosphorylation at S13 residues at 1 to 4 uM by Western blot analysis; details: dose 1-4 µM
[10] = molecular target: Desmoyokin (Mus musculus) (UniProt Q61484); test: Inhibition of AHNAK in mouse C2C12 cells assessed as reduction in phospho-sites occupancy at 4 uM after 5 hrs by SILAC based LC-MS/MS analysis relative to control
[11] = molecular target: Cyclin-dependent kinase 4 (Mus musculus) (UniProt P30285); test: Inhibition of Cdk4 in mouse C2C12 cells assessed as reduction in phospho-sites occupancy at 4 uM after 5 hrs by SILAC based LC-MS/MS analysis relative to control
[12] = molecular target: Protein transport protein Sec31A (Mus musculus) (UniProt Q3UPL0); test: Inhibition of Sec31a in mouse C2C12 cells assessed as reduction in phospho-sites occupancy at 4 uM after 5 hrs by SILAC based LC-MS/MS analysis relative to control
[13] = molecular target: E3 ubiquitin-protein ligase NEDD4 (Mus musculus) (UniProt P46935); test: Inhibition of Nedd4 in mouse C2C12 cells assessed as reduction in phospho-sites occupancy at 4 uM after 5 hrs by SILAC based LC-MS/MS analysis relative to control
Kinectin (Mus musculus) = Kinectin (Mus musculus) (UniProt Q61595); test: Inhibition of Ktn1 in mouse C2C12 cells assessed as reduction in phospho-sites occupancy at 4 uM after 5 hrs by SILAC based LC-MS/MS analysis relative to control
[14] = molecular target: DNA replication licensing factor MCM2 (Mus musculus) (UniProt P97310); test: Inhibition of Mcm2 in mouse C2C12 cells assessed as reduction in phospho-sites occupancy at 4 uM after 5 hrs by SILAC based LC-MS/MS analysis relative to control
[15] = molecular target: Transcriptional regulator ATRX (Mus musculus) (UniProt Q61687); test: Inhibition of ATRX in mouse C2C12 cells assessed as reduction in phospho-sites occupancy at 4 uM after 5 hrs by SILAC based LC-MS/MS analysis relative to control
[16] = molecular target: EH domain-containing protein 2 (Mus musculus) (UniProt Q8BH64); test: Inhibition of Ehd2 in mouse C2C12 cells assessed as reduction in phospho-sites occupancy at 4 uM after 5 hrs by SILAC based LC-MS/MS analysis relative to control
[17] = molecular target: 1-phosphatidylinositol 4,5-bisphosphate phosphodiesterase delta-3 (Mus musculus) (UniProt Q8K2J0); test: Inhibition of Plcd3 in mouse C2C12 cells assessed as reduction in phospho-sites occupancy at 4 uM after 5 hrs by SILAC based LC-MS/MS analysis relative to control
[18] = molecular target: Dihydropyrimidinase-related protein 3 (Mus musculus) (UniProt Q62188); test: Inhibition of Dihydropyrimidinase-related protein 3 in mouse C2C12 cells assessed as reduction in phospho-sites occupancy at 4 uM after 5 hrs by SILAC based LC-MS/MS analysis relative to control
[19] = molecular target: T1, Casein kinase 2 (Mus musculus); test: Inhibition of CK2 in mouse C2C12 cells assessed as reduction in CK2 substrates phosphorylation at 1 to 4 uM by Western blot analysis; details: dose 1-4 µM
[20] = molecular target: Autophagy-related protein 9A (Mus musculus) (UniProt Q68FE2); test: Inhibition of Atg9a in mouse C2C12 cells assessed as reduction in phospho-sites occupancy at 4 uM after 5 hrs by SILAC based LC-MS/MS analysis relative to control
[21] = molecular target: Lamina-associated polypeptide 2, isoforms beta/delta/epsilon/gamma (Mus musculus) (UniProt Q61029); test: Inhibition of LAP2B epsilon in mouse C2C12 cells assessed as reduction in phospho-sites occupancy at 4 uM after 5 hrs by SILAC based LC-MS/MS analysis relative to control
[22] = molecular target: Fermitin family homolog 2 (Mus musculus) (UniProt Q8CIB5); test: Inhibition of Fermt2 in mouse C2C12 cells assessed as reduction in phospho-sites occupancy at 4 uM after 5 hrs by SILAC based LC-MS/MS analysis relative to control
[23] = molecular target: Centrosomal protein of 170 kDa (Mus musculus) (UniProt Q6A065); test: Inhibition of Cep170 in mouse C2C12 cells assessed as reduction in phospho-sites occupancy at 4 uM after 5 hrs by SILAC based LC-MS/MS analysis relative to control

inhibition [1]: Active | fold change (FC) [2]: 1.84 | fold change (FC) [3]: 3.41 | fold change (FC) [4]: 1.7 | fold change (FC) [5]: 2.12 | fold change (FC) [6]: 1.54 | fold change (FC) [7]: 1.85 | fold change (FC) [8]: 1.95 | inhibition [9]: Active | fold change (FC) [10]: 1.54 | fold change (FC) [11]: 2.6 | fold change (FC) [12]: 2.28 | fold change (FC) [13]: 3.66 | fold change (FC) (Kinectin (Mus musculus)): 1.54 | fold change (FC) [14]: 1.83 | fold change (FC) [15]: 2.22 | fold change (FC) [16]: 1.65 | fold change (FC) [17]: 2.53 | fold change (FC) [18]: 2.57 | inhibition [19]: Active | fold change (FC) [20]: 1.5 | fold change (FC) [21]: 1.82 | fold change (FC) [22]: 2.53 | fold change (FC) [23]: 1.56
Compound: O=C(O)c1ccc2c(c1)nc(Nc1cccc(Cl)c1)c1ccncc12

Source: ChEMBL document CHEMBL4813950, “Comparing the efficacy and selectivity of Ck2 inhibitors. A phosphoproteomics approach” (Eur J Med Chem, 2021)
